We go through 17 compounds from patent US20230348442A1, “GALECTIN-3 INHIBITING 2-HYDROXYCYCLOALKANE-1-CARBAMOYL DERIVATIVES” (Idorsia Pharmaceuticals Ltd, priority 2020, published 2023).

The target of the experiment is human Gal-3 (hGal-3) (Homo sapiens (Human), UniProt P17931). The experiment in a line: competitive binding assay: binding of biotinylated hGal-3 to microplate-adsorbed asialofetuin (ASF), spectrophotometric. Conditions: Activity on hGal-3; mean values of several measurements. As for the experimental part: Evaluation of Compound Inhibitory Activity (IC50)
human Gal-3 (hGal-3), sequence (P17931 whole entry): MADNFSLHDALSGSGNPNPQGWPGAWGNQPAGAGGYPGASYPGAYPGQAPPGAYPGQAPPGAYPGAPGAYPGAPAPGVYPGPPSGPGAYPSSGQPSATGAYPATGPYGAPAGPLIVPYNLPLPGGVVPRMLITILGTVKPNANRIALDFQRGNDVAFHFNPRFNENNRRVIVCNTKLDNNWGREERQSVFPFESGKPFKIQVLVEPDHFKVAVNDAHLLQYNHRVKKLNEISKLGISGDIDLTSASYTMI
The inhibitory activity of compounds is determined in competitive binding assays. This spectrophotometric assay measures the binding of biotinylated human Gal-3 (hGal-3) or human Gal-1 (hGal-1), respectively, to a microplate-adsorbed glycoprotein, asialofetuin (ASF) (Proc Natl Acad Sci USA. 2013 Mar. 26; 110(13):5052-7.). Alternatively, and preferably, a human Gal-1 version in which all six cysteines are substituted by serines may be used.
Briefly, compounds are serially diluted in DMSO (working dilutions). ASF-coated 384 well plates are supplemented with 22.8 μL/well of biotinylated hGal-3 or hGal-1 in assay buffer (i.e. 300-1000 ng/mL biotinylated hGal-3 or hGal-1) to which 1.2 μL of compound working dilutions are added and mixed.
Plates are incubated for 3 hours at 4° C., then washed with cold assay buffer (3×50 uL), incubated for 1 hour with 25 μL/well of a streptavidin-peroxidase solution (diluted in assay buffer to 80 ng/mL) at 4° C., followed by further washing steps with assay buffer (3×50 uL). Finally, 25 μL/well of ABTS substrate is added.
The calculated IC50 values may fluctuate depending on the daily assay performance. Fluctuations of this kind are known to those skilled in the art. IC50 values from several measurements are given as mean values.
Broadly, the IC50 is the concentration that inhibits the measured activity by half. Low values mean higher potency, high ones lower potency. Consider `CO[C@@H]1[C@@H](n2cc(-c3cc(F)c(Cl)c(Cl)c3)nn2)[C@@H](O)[C@@H](CO)O[C@H]1C(=O)N(c1cc(Cl)cc(C#N)c1)[C@H]1CCC[C@@H]1O` [Example 1.17.4, (2R,3R,4S,5R,6R)-N-(3-chloro-5-cyanophenyl)-4-(4-(3,4-dichloro-5-fluorophenyl)-1H-1,2,3-triazol-1-yl)-5-hydroxy-N-((1S,2S)-2-hydroxycyclopentyl)-6-(hydroxymethyl)-3-methoxytetrahydro-2H-pyran-2-carboxamide], for which the 50% inhibitory concentration (IC50) was found to be 29.7 nM.

As for `COc1cc(-c2cn([C@H]3[C@@H](O)[C@@H](CO)O[C@@H](C(=O)N(c4cc(C)cc(Br)c4)[C@@H]4CC[C@H]4O)[C@@H]3OC)nn2)cc(F)c1F` [Example 2.3.12R, (2R,3R,4S,5R,6R)-N-(3-bromo-5-methylphenyl)-4-(4-(3,4-difluoro-5-methoxyphenyl)-1H-1,2,3-triazol-1-yl)-5-hydroxy-N-((1R,2R)-2-hydroxycyclobutyl)-6-(hydroxymethyl)-3-methoxytetrahydro-2H-pyran-2-carboxamide], the half-maximal inhibitory concentration (IC50) was 311 nM. Compared with the last compound, the IC50 is about 10-fold higher.

`CO[C@@H]1[C@@H](n2cc(-c3cc(F)c(F)c(F)c3)nn2)[C@@H](O)[C@@H](CO)O[C@H]1C(=O)N(c1cc(C)cc(Br)c1)[C@H]1CCC[C@@H]1O` [Example 1.1.12, (2R,3R,4S,5R,6R)-N-(3-bromo-5-methylphenyl)-5-hydroxy-N-((1S,2S)-2-hydroxycyclopentyl)-6-(hydroxymethyl)-3-methoxy-4-(4-(3,4,5-trifluorophenyl)-1H-1,2,3-triazol-1-yl)tetrahydro-2H-pyran-2-carboxamide] had a 50% inhibitory concentration (IC50) of 34.7 nM.

The compound `CO[C@@H]1[C@@H](n2cc(-c3cc(F)c(Br)c(F)c3)nn2)[C@@H](O)[C@@H](CO)O[C@H]1C(=O)N(c1cc(Br)cc(C#N)c1)[C@H]1CC[C@@H]1O` [Example 2.6.5, (2R,3R,4S,5R,6R)-4-(4-(4-bromo-3,5-difluorophenyl)-1H-1,2,3-triazol-1-yl)-N-(3-bromo-5-cyanophenyl)-5-hydroxy-N-((1S,2S)-2-hydroxycyclobutyl)-6-(hydroxymethyl)-3-methoxytetrahydro-2H-pyran-2-carboxamide] returned an IC50 of 70.9 nM.

In turn, `CO[C@@H]1[C@@H](n2cc(-c3ccc(Cl)c(Cl)c3)nn2)[C@@H](O)[C@@H](CO)O[C@H]1C(=O)N(c1cc(Cl)cc(C#N)c1)[C@@H]1CCC[C@H]1O` [Example 1.8.4R, (2R,3R,4S,5R,6R)-N-(3-chloro-5-cyanophenyl)-4-(4-(3,4-dichlorophenyl)-1H-1,2,3-triazol-1-yl)-5-hydroxy-N-((1R,2R)-2-hydroxycyclopentyl)-6-(hydroxymethyl)-3-methoxytetrahydro-2H-pyran-2-carboxamide] displayed an IC50 of 330 nM.

Compound `CO[C@@H]1[C@@H](n2cc(-c3ccc(Br)c(F)c3F)nn2)[C@@H](O)[C@@H](CO)O[C@H]1C(=O)N(c1cc(F)cc(C#N)c1)[C@@H]1CCC[C@H]1O` [Example 1.12.7R, (2R,3R,4S,5R,6R)-4-(4-(4-bromo-2,3-difluorophenyl)-1H-1,2,3-triazol-1-yl)-N-(3-cyano-5-fluorophenyl)-5-hydroxy-N-((1R,2R)-2-hydroxycyclopentyl)-6-(hydroxymethyl)-3-methoxytetrahydro-2H-pyran-2-carboxamide] displayed an IC50 of 94.6 nM.

Turning to `CO[C@@H]1[C@@H](n2cc(-c3ccc(Br)c(F)c3F)nn2)[C@@H](O)[C@@H](CO)O[C@H]1C(=O)N(c1cc(Br)cc(C#N)c1)[C@H]1CC[C@@H]1O` [Example 2.12.5, (2R,3R,4S,5R,6R)-4-(4-(4-bromo-2,3-difluorophenyl)-1H-1,2,3-triazol-1-yl)-N-(3-bromo-5-cyanophenyl)-5-hydroxy-N-((1S,2S)-2-hydroxycyclobutyl)-6-(hydroxymethyl)-3-methoxytetrahydro-2H-pyran-2-carboxamide], the IC50 turned out to be 25.9 nM.

For the compound `CO[C@@H]1[C@@H](n2cc(-c3cc(F)c(F)c(F)c3)nn2)[C@@H](O)[C@@H](CO)O[C@H]1C(=O)N(c1cccc(Br)c1)[C@H]1CCC[C@@H]1O` [Example 1.1.10, (2R,3R,4S,5R,6R)-N-(3-bromophenyl)-5-hydroxy-N-((1S,2S)-2-hydroxycyclopentyl)-6-(hydroxymethyl)-3-methoxy-4-(4-(3,4,5-trifluorophenyl)-1H-1,2,3-triazol-1-yl)tetrahydro-2H-pyran-2-carboxamide], the IC50 was found to be 78.8 nM.

Take `CO[C@@H]1[C@@H](n2cc(-c3ccc(Br)c(F)c3F)nn2)[C@@H](O)[C@@H](CO)O[C@H]1C(=O)N(c1cc(F)cc(C#N)c1)[C@@H]1CC[C@H]1O` [Example 2.12.7R, (2R,3R,4S,5R,6R)-4-(4-(4-bromo-2,3-difluorophenyl)-1H-1,2,3-triazol-1-yl)-N-(3-cyano-5-fluorophenyl)-5-hydroxy-N-((1R,2R)-2-hydroxycyclobutyl)-6-(hydroxymethyl)-3-methoxytetrahydro-2H-pyran-2-carboxamide]: the IC50 came out at 107 nM.

The compound `CO[C@@H]1[C@@H](n2cc(-c3ccc(Br)c(F)c3F)nn2)[C@@H](O)[C@@H](CO)O[C@H]1C(=O)N(c1cc(Cl)cc(C#N)c1)[C@@H]1CCC[C@H]1O` [Example 1.12.4R, (2R,3R,4S,5R,6R)-4-(4-(4-bromo-2,3-difluorophenyl)-1H-1,2,3-triazol-1-yl)-N-(3-chloro-5-cyanophenyl)-5-hydroxy-N-((1R,2R)-2-hydroxycyclopentyl)-6-(hydroxymethyl)-3-methoxytetrahydro-2H-pyran-2-carboxamide] showed a 50% inhibitory concentration (IC50) of 90.7 nM. This IC50 and that of the compound before are within 1.5-fold of each other.

The compound `CO[C@@H]1[C@@H](n2cc(-c3ccc(Cl)c(Cl)c3)nn2)[C@@H](O)[C@@H](CO)O[C@H]1C(=O)N(c1cc(Br)cc(C#N)c1)[C@H]1CC[C@@H]1O` [Example 2.8.5, (2R,3R,4S,5R,6R)-N-(3-bromo-5-cyanophenyl)-4-(4-(3,4-dichlorophenyl)-1H-1,2,3-triazol-1-yl)-5-hydroxy-N-((1S,2S)-2-hydroxycyclobutyl)-6-(hydroxymethyl)-3-methoxytetrahydro-2H-pyran-2-carboxamide] had an IC50 of 155 nM.

With `CO[C@@H]1[C@@H](n2cc(-c3cc(F)c(C)c(F)c3)nn2)[C@@H](O)[C@@H](CO)O[C@H]1C(=O)N(c1cc(Cl)cc(Cl)c1)[C@@H]1CC[C@H]1O` [Example 2.4.2R, (2R,3R,4S,5R,6R)-N-(3,5-dichlorophenyl)-4-(4-(3,5-difluoro-4-methylphenyl)-1H-1,2,3-triazol-1-yl)-5-hydroxy-N-((1R,2R)-2-hydroxycyclobutyl)-6-(hydroxymethyl)-3-methoxytetrahydro-2H-pyran-2-carboxamide], the IC50 stood at 134 nM. This IC50 and that of the compound before are within 1.5-fold of each other.

The compound `CO[C@@H]1[C@@H](n2cc(-c3cc(F)cc(Cl)c3)nn2)[C@@H](O)[C@@H](CO)O[C@H]1C(=O)N(c1cc(Br)cc(C#N)c1)[C@@H]1CC[C@H]1O` [Example 2.9.5R, (2R,3R,4S,5R,6R)-N-(3-bromo-5-cyanophenyl)-4-(4-(3-chloro-5-fluorophenyl)-1H-1,2,3-triazol-1-yl)-5-hydroxy-N-((1R,2R)-2-hydroxycyclobutyl)-6-(hydroxymethyl)-3-methoxytetrahydro-2H-pyran-2-carboxamide] gave an IC50 of 473 nM. This IC50 is about 3.5-fold higher than that of the compound before.

Regarding `CO[C@@H]1[C@@H](n2cc(-c3cccc(F)c3)nn2)[C@@H](O)[C@@H](CO)O[C@H]1C(=O)N(c1cc(Br)cc(C#N)c1)[C@@H]1CCC[C@H]1O` [Example 1.15.5R, (2R,3R,4S,5R,6R)-N-(3-bromo-5-cyanophenyl)-4-(4-(3-fluorophenyl)-1H-1,2,3-triazol-1-yl)-5-hydroxy-N-((1R,2R)-2-hydroxycyclopentyl)-6-(hydroxymethyl)-3-methoxytetrahydro-2H-pyran-2-carboxamide], the IC50 is 612 nM.

Take `CO[C@@H]1[C@@H](n2cc(-c3cc(F)c(C)c(F)c3)nn2)[C@@H](O)[C@@H](CO)O[C@H]1C(=O)N(c1cc(Cl)cc(Cl)c1)[C@H]1CCC[C@@H]1O` [Example 1.4.2, (2R,3R,4S,5R,6R)-N-(3,5-dichlorophenyl)-4-(4-(3,5-difluoro-4-methylphenyl)-1H-1,2,3-triazol-1-yl)-5-hydroxy-N-((1S,2S)-2-hydroxycyclopentyl)-6-(hydroxymethyl)-3-methoxytetrahydro-2H-pyran-2-carboxamide]: the 50% inhibitory concentration (IC50) came to 44.8 nM.

With `CO[C@@H]1[C@@H](n2cc(-c3ccc(C)c(F)c3F)nn2)[C@@H](O)[C@@H](CO)O[C@H]1C(=O)N(c1cc(Br)cc(C#N)c1)[C@@H]1CC[C@H]1O` [Example 2.11.5R, (2R,3R,4S,5R,6R)-N-(3-bromo-5-cyanophenyl)-4-(4-(2,3-difluoro-4-methylphenyl)-1H-1,2,3-triazol-1-yl)-5-hydroxy-N-((1R,2R)-2-hydroxycyclobutyl)-6-(hydroxymethyl)-3-methoxytetrahydro-2H-pyran-2-carboxamide], the IC50 was 98.7 nM.

With `CO[C@@H]1[C@@H](n2cc(-c3cc(F)c(Br)c(F)c3)nn2)[C@@H](O)[C@@H](CO)O[C@H]1C(=O)N(c1cc(F)cc(C#N)c1)[C@H]1CC[C@@H]1O` [Example 2.6.7, (2R,3R,4S,5R,6R)-4-(4-(4-bromo-3,5-difluorophenyl)-1H-1,2,3-triazol-1-yl)-N-(3-cyano-5-fluorophenyl)-5-hydroxy-N-((1S,2S)-2-hydroxycyclobutyl)-6-(hydroxymethyl)-3-methoxytetrahydro-2H-pyran-2-carboxamide], the IC50 amounted to 183 nM.
